Assay results from US5633230A, “Treatment of cytomegalovirus infection” (priority 1994, dated 1997).
pIC50: −log10 of the molar value. Values after ≈ are worked out from the molar mass of the structure shown. Values joined by “and” are separate entries in the source; they are usually repeats but may differ in a detail not shown here. Identical values can stand only once.

Key:
CMV strain AD-169 [1] = assay: CPE assay, CMV AD-169 in HFF cells; assay type: cell-based; conditions: CMV AD-169, HFF (human foreskin fibroblast), without 24 h drug pretreatment
Description: *CPE assay, all others are plaque reduction assays.

CMV strain Towne = assay type: cell-based, human CMV; conditions: HFF, plaque reduction, without 24 h drug pretreatment
Method: (§1) The following procedures were then used to determine inhibitory effects of AV-9 on the replication of CMV. […] This was accomplished by diluting the stock peptide solution in growth medium (10% fetal bovine serum and 10 μg/ml gentamicin in Dulbecco's MEM (DMEM)) used to overlay the monolayers.
(§2) […] Virus was then allowed to adsorb for 1 hour at 37° C. The virus inoculum was removed and the monolayers were overlayed with DMEM containing 2% FBS, 10 ug/ml gentamicin and a specified concentration of AV-9. Virus was next allowed to replicate for 7 to 10 days until the plaques were judged to be well developed, and then the monolayers were fixed and stained with a solution of 1% crystal violet in 1% formaldehyde,70% ethanol. Finally, plaques (each representing a single viable virion) were counted and checked microscopically.
(§3) In a like manner, plaque reduction assays were also performed against other CMV strains and another CMV host, with comparison against ganciclovir (GCV) and foscarnet (FCV).

CMV strain AD-169 [2] = assay: plaque reduction assay, CMV AD-169 in HFF cells; assay type: cell-based, human CMV; conditions: CMV AD-169, HFF, without 24 h drug pretreatment
Method: as §1, §2, §3

[3] = toxicity control mice, immunosuppressed, uninfected; conditions: for Mean Body Weight Change: start of treatment to 24 hr after final treatment; for Surv/Total: toxicity controls
Method: The mice were immunosuppressed by intraperitoneal (i.p.) injection with 100 mg/kg/day of cyclophosphamide administered on days -1, +3, +6, +10, +14 and +18 relative to virus inoculation. […] In a second portion of the study, the compound was administered i.p. in a dose of 0.1 mg/kg/day once daily from day -2 through +10. Ganciclovir in a dose of 50 mg/kg/day was injected i.p. once daily for 10 days beginning 24 hr post-virus exposure (days +1→+10). A total of 15 infected mice/dose were used. […] Five toxicity control mice were used at each dose; these mice were treated in parallel with the infected mice, and were weighed on the initial day of treatment and again 24 after the final treatment. […] Normal controls were weighed and held in parallel with the toxicity controls.

CMV strain Davis = conditions: MRC-5, plaque reduction, 24 h drug pretreatment
Method: The following procedures were then used to determine inhibitory effects of AV-9 on the replication of CMV. First, confluent monolayers of the human diploid cell line, MRC-5 (ATCC# CCL 171) in 24 well cell culture plates were pretreated with specified concentrations (20 μM, 10 μM, 5 μM, 2.5 μM, 1.0 μM, 0.5 μM and 0.0 μM) of AV-9 for 24 hours. This was accomplished by diluting the stock peptide solution in growth medium (10% fetal bovine serum and 10 μg/ml gentamicin in Dulbecco's MEM (DMEM)) used to overlay the monolayers.
(§4) After pretreatment with AV-9, the monolayers were overlaid with 0.1 ml log10 dilutions of virus (CMV strain AD-169) ranging from 10^-1 to 10^-6. Virus was then allowed to adsorb for 1 hour at 37° C. The virus inoculum was removed and the monolayers were overlayed with DMEM containing 2% FBS, 10 ug/ml gentamicin and a specified concentration of AV-9. Virus was next allowed to replicate for 7 to 10 days until the plaques were judged to be well developed, and then the monolayers were fixed and stained with a solution of 1% crystal violet in 1% formaldehyde,70% ethanol. Finally, plaques (each representing a single viable virion) were counted and checked microscopically.
as §3

[4] = mouse, in vivo
Method: Ten mice were injected intravenously in the tail vein with 0.25 mL of a solution of 26 μg of ^14 C-labelled compound in 10 mL PBS, and ten mice were given the same dose by subcutaneous injection in the abdomen. One mouse from each group was sacrificed at the time points noted in FIGS. 1 and 2, and the noted organs were weighed and digested to homogeneity for scintillation counting. Counts were measured and used to calculate the amount and concentration of drug in each organ.

[5] = tested on: ganciclovir-resistant CMV strains 759^r D100 and GDG^r K17 and foscarnet-resistant CMV strains PFA^r D100 and PFA^r B300; conditions: range over strains 759^r D100, GDG^r K17, PFA^r D100, PFA^r B300; MRC-5; drug pre- and post-infection
Method: This stock solution was subsequently diluted in cell culture medium to obtain the test concentrations used in the study. Ganciclovir (GCV) was dissolved in sterile, deionized water, and the drug concentration measured spectrophotometrically (7.8mM). Foscarnet (phosphonoformic acid, PFA) was dissolved in sterile, deionized water to a final concentration of 100 mM. Aliquots of the stock solutions were stored at -70° C.
Drug-resistant human CMV strains 759^r D100, GDG^r K17, PFA^r D100 and PFA^r B300 were obtained from Dr. Donald M. Coen, Harvard Medical School, Boston, Mass.
The drug stock solutions were diluted with fresh culture medium to obtain the desired test concentrations in the range 0.5-2500 μM.
MRC-5 cells (4-5×10^5 per well) were grown for 24 hours at 37° C. in 5% CO2 atmosphere in D-MEM/F-12FBS medium containing varying concentrations of drug. At the end of the pre-treatment period, the cells were infected with a suspension containing 50 plaque forming units of CMV (MOI=0.0001). The virus was allowed to absorb for 60 minutes at 37° C. in the absence of drug, at which time the virus innoculum was washed away, and the cells fed with fresh growth medium containing drug. […] Vital plaques were counted under a microscope after removing the culture medium from the wells, staining the cells with 1.1% Crystal Violet solution, and washing twice with tap water. […]

CMV strain AD-169 [6] = assay: plaque reduction assay, CMV AD-169 in MRC-5 cells; assay type: cell-based, human CMV; conditions: CMV AD-169, MRC-5 (human embryonic lung), 24 h drug pretreatment
Method: as §1, §4, §3

[7] = tested on: Smith strain of murine CMV; assay: murine CMV infection in cyclophosphamide-immunosuppressed mice; assay type: in vivo, BALB/c mice; conditions: for Surv/Total / Mean Day to Death ± S.D.: infected mice
Description: This immunosuppression model mimics the human patient situation, wherein the HCMV-induced disease in immunosuppressed individuals can often be fatal. The particular model used for evaluating potential antiviral activity has been described by Smee et al in J. Infect. Dis., 1991, 164: 958.
The Smith strain of murine CMV, obtained originally from the American Type Culture Collection (Rockville, Md.) was used. A mouse salivary gland preparation was used for the virus pool. An inoculation of 2×10^4 plaque forming units of the virus was used in the antiviral study. Female BALB/c mice weighing 10-12 g were quarantined 24 hr prior to use, and maintained on Wayne Lab Blox and tap water ad libitum the duration of the study.
Ganciclovir (DHPG) was purchased from a commercial source, and cyclophosphamide was purchased from Sigma Chemical Co. (St. Louis, Mo.).
To determine tissue virus titre, homogenates of infected mouse organs were titrated for virus using C127/I cells in 96-well microplates. Each tissue sample was homogenized and titrated separately with 3 micro wells used per dilution; plates were read by microscopic examination for viral-induced cytopathic effect, with 50% end points determined by the Reed-Muench method. Mean viral titers were expressed at 50% cell culture infectious doses (CCID50)/gram of tissue.
For statistical evaluation, increases in mean day to death and reductions in viral titers were assessed using the two-tailed Mann-Whitney U test. Total survivor increases were evaluated by chi square analysis with Yates'.

physchem = conditions: water
[8] = 0.07 mg/kg/day i.p., days -2,0,+2,+4,+6,+8,+10
[9] = 0.1 mg/kg/day i.p., daily days -2 through +10
[10] = 0.2 mg/kg/day i.p., days -2,0,+2,+4,+6,+8,+10
[11] = 0.7 mg/kg/day i.p., days -2,0,+2,+4,+6,+8,+10
[12] = 2.0 mg/kg/day i.p., days -2,0,+2,+4,+6,+8,+10
[13] = 0.2 mg/kg/day i.p. every other day, day 9
[14] = 0.2 mg/kg/day i.p. every other day, 9 days after virus challenge

CC(=O)N[C@H](CCCNC(=N)N)C(=O)N[C@H](CCCNC(=N)N)C(=O)N[C@H](CCCNC(=N)N)C(=O)N[C@H](CCCNC(=N)N)C(=O)N[C@H](CCCNC(=N)N)C(=O)N[C@H](CCCNC(=N)N)C(=O)N[C@H](CCCNC(=N)N)C(=O)N[C@H](CCCNC(=N)N)C(=O)N[C@H](CCCNC(=N)N)C(N)=O [AV-9, acetyl-[D-Arg]9 -NH2]
pIC50 (CMV strain AD-169 [1]): 5.24
pIC50 (CMV strain Towne): 5.06
pIC50 (CMV strain AD-169 [2]): 4.92
Mean Body Weight Change ([3]; 0.07 mg/kg/day i.p. every other day): 2.7 g
Mean Body Weight Change ([3]; 0.1 mg/kg/day i.p. daily days -2 to +10): 3.1 g
Mean Body Weight Change ([3]; 0.2 mg/kg/day i.p. every other day): 2.2 g
Mean Body Weight Change ([3]; 0.7 mg/kg/day i.p. every other day): 2.4 g
Mean Body Weight Change ([3]; 2.0 mg/kg/day i.p. every other day): 1.9 g
other signs of toxicity (hunching, prostration, ruffled fur, tremors) ([3]; all doses): No other signs of toxicity
toxicity, overall assessment ([3]; all doses, Table 3): reasonably non-toxic
Surv/Total [3, 8]: 5/5
Surv/Total [3, 9]: 5/5
Surv/Total [3, 10]: 5/5
Surv/Total [3, 11]: 5/5
Surv/Total [3, 12]: 5/5
pIC50 (CMV strain Davis): 5.64
speed of distribution to tissues [4]: rapid distribution of drug to tissues
tissue distribution, organs with highest levels [4]: highest and most prolonged levels are attained in the liver, followed by the kidneys and spleen
pIC50 [5]: 5.68 to 5.89
pIC50 (CMV strain AD-169 [6]): 5.59 and 5.32 and 5.57
animals without detectable virus in lungs [7, 13]: one had no detectable virus
animals without detectable virus in spleen, of the five sampled [7, 13]: three had no detectable virus
effect on salivary gland virus titers [7, 13]: No effect
reduction of mean lung virus titer compared to placebo-treated controls [7, 13]: 0.6 log10
Tissue Virus Titer ± S.D., Lung [7, 14]: 3.3 ± 1.9 log10 CCID50/g
Tissue Virus Titer ± S.D., Salivary Gland [7, 14]: 7.6 ± 1.2 log10 CCID50/g
Tissue Virus Titer ± S.D., Spleen [7, 14]: 1.5 ± 2.26 log10 CCID50/g
Surv/Total [7, 8]: 0/8
Mean Day to Death ± S.D. ([7]; 0.07 mg/kg/day i.p., days -2,0,+2,+4,+6,+8,+10, P<0.05 vs saline): 13.4 ± 2.6 days
Mean Day to Death ± S.D. [7, 9]: 11.3 ± 0.5 days
Surv/Total [7, 9]: 0/8
Surv/Total [7, 10]: 0/8
Mean Day to Death ± S.D. ([7]; 0.2 mg/kg/day i.p., days -2,0,+2,+4,+6,+8,+10, P<0.01 vs saline): 18.5 ± 3.7 days
Mean Day to Death ± S.D. [7, 11]: 11.6 ± 1.6 days
Surv/Total [7, 11]: 0/7
Mean Day to Death ± S.D. [7, 12]: 12.1 ± 1.3 days
Surv/Total [7, 12]: 0/7
solubility (physchem): ~1000 mg/mL (≈ 683 mM)
